Strand notation (5' to 3'): a small letter for the sugar, then the base; units joined by * are phosphorothioate-linked, units joined directly phosphodiester-linked; [ ] holds rarer units or linkages, { } end groups; capitals alone tell only the bases. e = 2'-O-(2-methoxyethyl) (MOE); [5mC] = 5-methylcytosine; d = 2'-deoxy (DNA)
Key:
human Factor 11 mRNA [1] = experiment: Antisense inhibition of human Factor 11 in HepG2 cells by microwalk gapmers, lipofectin, 75 nM (Example 3); type: cell-based; settings: HepG2 cells, lipofectin, gapmers targeted to nucleobases 1275 to 1318 of SEQ ID NO: 1
Method in brief: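 HepG2 cells (10,000/well) were transfected via lipofectin with 75 nM 20-mer MOE gapmers (phosphorothioate, 5-methyl-C) for about 24 h. Factor 11 mRNA was measured by qRT-PCR, normalized to RIBOGREEN total RNA, and given as percent inhibition versus untreated cells.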

human Factor 11 mRNA [2] = experiment: Antisense inhibition of human Factor 11 in HepG2 cells, electroporation, 8,000 nM (Example 30); type: cell-based; settings: electroporation, 8,000 nM antisense oligonucleotide
Procedure: These microwalk gapmers were tested in vitro. Cultured HepG2 cells at a density of 20,000 cells per well were transfected using electroporation with 8,000 nM antisense oligonucleotide. After a treatment period of approximately 24 hours, RNA was isolated from the cells and Factor 11 mRNA levels were measured by quantitative real-time PCR. Factor 11 mRNA levels were adjusted according to total RNA content, as measured by RIBOGREEN. Results are presented as percent inhibition of Factor 11, relative to untreated control cells.
The chimeric antisense oligonucleotides in Table 44 were designed as 5-10-5 MOE, 5-8-5 and 6-8-6 MOE gapmers. The first two listed gapmers in Table 44 are the original gapmers (ISIS 416850 and ISIS 416858) from which ISIS 445493-445543 were designed via microwalk, and are designated by an asterisk. The 5-10-5 gapmers are 20 nucleotides in length, wherein the central gap segment is comprised of ten 2′-deoxynucleotides and is flanked on both sides (in the 5′ and 3′ directions) by wings comprising five nucleotides each. The 5-8-5 gapmers are 18 nucleotides in length, wherein the central gap segment is comprised of eight 2′-deoxynucleotides and is flanked on both sides (in the 5′ and 3′ directions) by wings comprising five nucleotides each. The 6-8-6 gapmers are 20 nucleotides in length, wherein the central gap segment is comprised of eight 2′-deoxynucleotides and is flanked on both sides (in the 5′ and 3′ directions) by wings comprising six nucleotides each. For each of the motifs (5-10-5, 5-8-5 and 6-8-6), each nucleotide in the 5′ wing segment and each nucleotide in the 3′ wing segment has a 2′-MOE modification. The internucleoside linkages throughout each gapmer are phosphorothioate (P=S) linkages. All cytidine residues throughout each gapmer are 5-methylcytidines. “Human Target start site” indicates the 5′-most nucleotide to which the gapmer is targeted in the human sequence. “Human Target stop site” indicates the 3′-most nucleotide to which the gapmer is targeted in the human sequence. Each gapmer listed in Table 44 is targeted to SEQ ID NO: 1 (GENBANK Accession No. NM_000128.3). Each gapmer is Table 44 is also fully cross-reactive with the rhesus monkey Factor 11 gene sequence, designated herein as SEQ ID NO: 274 (exons 1-15 GENBANK Accession No. NW_001118167.1). ‘Rhesus monkey start site’ indicates the 5′-most nucleotide to which the gapmer is targeted in the rhesus monkey sequence. ‘Rhesus monkey stop site’ indicates the 3′-most nucleotide to which the gapmer is targeted to the rhesus monkey sequence.

Substance | % inhibition (human Factor 11 mRNA [1]) [%] | Percent inhibition of human Factor 11 mRNA levels (human Factor 11 mRNA [2]) [%]
416862 (antisense eA*eG*e[5mC]*eG*eG*dA*d[5mC]*dG*dG*d[5mC]*dA*dT*dT*dG*dG*eT*eG*e[5mC]*eA*e[5mC]) [compound 416862] | 90 | 89
416853 (antisense eT*eT*eG*eG*eT*dG*d[5mC]*dA*d[5mC]*dA*dG*dT*dT*dT*d[5mC]*eT*eG*eG*e[5mC]*eA) [compound 416853] | 91 | 84
416865 (antisense eT*eG*eG*e[5mC]*eA*dG*d[5mC]*dG*dG*dA*d[5mC]*dG*dG*d[5mC]*dA*eT*eT*eG*eG*eT) [compound 416865] | 88 | 86
416855 (antisense e[5mC]*eA*eT*eT*eG*dG*dT*dG*d[5mC]*dA*d[5mC]*dA*dG*dT*dT*eT*e[5mC]*eT*eG*eG) [compound 416855] | 87 | 85
445528 (antisense eA*eT*eT*eG*eG*dT*dG*d[5mC]*dA*d[5mC]*dA*dG*dT*eT*eT*e[5mC]*eT*eG) [compound 445528] |  | 73
445495 (antisense eG*e[5mC]*eA*e[5mC]*eA*eG*dT*dT*dT*d[5mC]*dT*dG*dG*d[5mC]*eA*eG*eG*e[5mC]*e[5mC]*eT) [compound 445495] |  | 89
445506 (antisense eA*e[5mC]*eG*eG*e[5mC]*eA*dT*dT*dG*dG*dT*dG*d[5mC]*dA*e[5mC]*eA*eG*eT*eT*eT) [compound 445506] |  | 86
445516 (antisense e[5mC]*eT*eG*eG*e[5mC]*eA*dG*d[5mC]*dG*dG*dA*d[5mC]*dG*dG*e[5mC]*eA*eT*eT*eG*eG) [compound 445516] |  | 79
445519 (antisense e[5mC]*eA*eG*eT*eT*dT*d[5mC]*dT*dG*dG*d[5mC]*dA*dG*eG*e[5mC]*e[5mC]*eT*e[5mC]) [compound 445519] |  | 81
445525 (antisense eG*eG*eT*eG*e[5mC]*dA*d[5mC]*dA*dG*dT*dT*dT*d[5mC]*eT*eG*eG*e[5mC]*eA) [compound 445525] |  | 85
445535 (antisense eG*eG*eA*e[5mC]*eG*dG*d[5mC]*dA*dT*dT*dG*dG*dT*eG*e[5mC]*eA*e[5mC]*eA) [compound 445535] |  | 83
445512 (antisense e[5mC]*eA*eG*e[5mC]*eG*eG*dA*d[5mC]*dG*dG*d[5mC]*dA*dT*dT*eG*eG*eT*eG*e[5mC]*eA) [compound 445512] |  | 79
445527 (antisense eT*eT*eG*eG*eT*dG*d[5mC]*dA*d[5mC]*dA*dG*dT*dT*eT*e[5mC]*eT*eG*eG) [compound 445527] |  | 70
445497 (antisense eG*eT*eG*e[5mC]*eA*e[5mC]*dA*dG*dT*dT*dT*d[5mC]*dT*dG*eG*e[5mC]*eA*eG*eG*e[5mC]) [compound 445497] |  | 81
445493 (antisense eA*e[5mC]*eA*eG*eT*eT*dT*d[5mC]*dT*dG*dG*d[5mC]*dA*dG*eG*e[5mC]*e[5mC]*eT*e[5mC]*eG) [compound 445493] |  | 69
445542 (antisense eT*eG*eG*e[5mC]*eA*dG*d[5mC]*dG*dG*dA*d[5mC]*dG*dG*e[5mC]*eA*eT*eT*eG) [compound 445542] |  | 83
445514 (antisense eG*eG*e[5mC]*eA*eG*e[5mC]*dG*dG*dA*d[5mC]*dG*dG*d[5mC]*dA*eT*eT*eG*eG*eT*eG) [compound 445514] |  | 81

— US20230263822A1, “MODULATION OF FACTOR 11 EXPRESSION” (Ionis Pharmaceuticals, Inc., priority 2008, published 2023)
